# From patent publication US12383533B2 (Frost Biologic, Inc., priority 2014, dated 2025)
# Experiments:
# Assay type in all cases: cell-based
# [1] = test system: MCF-7 cells; assay: Cell Viability Assay (ATPlite 1step), MCF-7; settings: Homo sapiens, MCF7, 72 hours; for percent inhibition of cell viability at 4 µM: MCF-7, 4 uM compound, read-out: Cell Viability % inhibition MCF-7 (4 uM Cpd); for percent inhibition of cell viability at 20 µM: MCF-7, 20 uM compound, read-out: Cell Viability % inhibition MCF-7 (20 uM Cpd)
# Protocol: (§1) Cell Viability Assay Protocol
# (§2) Cells were trypsinized, counted, and re-seeded into a 384-well tissue culture plate at 1000 cells per well in […] media. Cells were incubated at 37° C. in an atmosphere of 5% CO2 for 24 hours. Experimental compounds, initially dissolved in DMSO and diluted further in media were added to the wells and incubated for 72 hours. Cell viability was measured using the ATPlite 1step Luminescence Detection Assay system (Perkin Elmer) as described in the Assay kit instructions.
# (§3) Cell Culture Lines and Media: (1) A2780 cells were cultured in RPMI media with 10% FBS and 1% antibiotics. Cells were typically split every 3-5 days at a 1:10 dilution; (2) PC3 cells were cultured in RPMI media with 10% FBS and 1% antibiotics. Cells were typically split every 3-5 days at a 1:4 dilution; (3) MCF-7 cells were grown in K-12F media with 10% FBS and 1% antibiotics. Cells were typically split every 3-5 days at a 1:10 dilution.
# [2] = test system: PC3 cells; assay: Cell Viability Assay (ATPlite 1step), PC3; settings: Homo sapiens, PC-3, 72 hours; for percent inhibition of cell viability at 4 µM: PC3, 4 uM compound, read-out: Cell Viability % inhibition PC3 (4 uM Cpd); for percent inhibition of cell viability at 20 µM: PC3, 20 uM compound, read-out: Cell Viability % inhibition PC3 (20 uM Cpd)
# Protocol: as §1, §2, §3
# [3] = test system: A2780 cells; assay: Cell Viability Assay (ATPlite 1step), A2780; settings: Homo sapiens, 72 hours; for percent inhibition of cell viability at 4 µM: A2780, 4 uM compound, read-out: Cell Viability % inhibition A2780 (4 uM Cpd); for percent inhibition of cell viability at 20 µM: A2780, 20 uM compound, read-out: Cell Viability % inhibition A2780 (20 uM Cpd)
# Protocol: as §1, §2, §3
Compound,percent inhibition of cell viability at 4 µM [1],percent inhibition of cell viability at 20 µM [1],percent inhibition of cell viability at 4 µM [2],percent inhibition of cell viability at 20 µM [2],percent inhibition of cell viability at 4 µM [3],percent inhibition of cell viability at 20 µM [3]
"Cc1ncc(C(=O)Nc2ccc(-c3cc(Cl)cc(N4CCN(C)CC4)c3)c(C)n2)cn1 [Compound 48, N-{5-[3-chloro-5-(4-methylpiperazin-1-yl)phenyl]-6-methylpyridin-2-yl}-2-methylpyrimidine-5-carboxamide]",36.5%,47.8%,72%,67%,79.2%,88.8%
"O=C(Nc1ccc(-c2ccoc2)cn1)c1cncnc1 [Compound 19, N-[5-(furan-3-yl)pyridin-2-yl]pyrimidine-5-carboxamide]",56.4%,69.6%,62.2%,75.2%,83.2%,91.8%
"O=C(Nc1ccc(-c2cccnc2)cn1)c1cncnc1 [Compound 14, N-(3,3′-bipyridin-6-yl)pyrimidine-5-carboxamide]",19.1%,30.3%,23.9%,43.3%,51.2%,71.4%
"COc1cccc(-c2ccc(NC(=O)c3cncnc3)nc2)c1 [Compound 18, N-[5-(3-methoxyphenyl)pyridin-2-yl]pyrimidine-5-carboxamide]",58.8%,75.4%,66.2%,76.5%,88.5%,91.5%
"O=C(Nc1ccc(-c2ccccn2)cn1)c1cncnc1 [Compound 15, N-(3,2′-bipyridin-6-yl)pyrimidine-5-carboxamide]",34.5%,25.6%,40.8%,48.2%,68.8%,73.4%
"O=C(Nc1ncc(-c2ccccc2)cn1)c1cncnc1 [Compound 12, N-(5-phenylpyrimidin-2-yl)pyrimidine-5-carboxamide]",53.7%,69.8%,59.7%,69.2%,82.7%,91.3%
"O=C(Nc1ccc(-c2ccco2)cn1)c1cncnc1 [Compound 20, N-[5-(furan-2-yl)pyridin-2-yl]pyrimidine-5-carboxamide]",56.3%,61.2%,59.9%,69.4%,84%,91.1%
Cc1ncc(C(=O)Nc2ccc(-c3cc(C4CC4)cc(N4CCN(C)CC4)c3)cn2)cn1 [Compound 53],11.3%,39.6%,12.3%,67.1%,15.1%,74.8%
"Cc1ncc(C(=O)Nc2ncc(-c3cccc(NC4CC4)c3)cc2F)cn1 [Compound 68, N-{5-[3-(cyclopropylamino)phenyl]-3-fluoropyridin-2-yl}-2-methylpyrimidine-5-carboxamide]",54.3%,59.3%,58.4%,64.4%,87.1%,89%
"Cc1ncc(C(=O)Nc2ncc(-c3cc(Cl)cc(N4CCNCC4)c3)cc2F)cn1 [Compound 54, N-{5-[3-chloro-5-(piperazin-1-yl)phenyl]-3-Fluoropyridin-2-yl}-2-methylpyrimidine-5-carboxamide]",23.8%,42.6%,0.2%,34.8%,-6.4%,64.6%
"CNC(=O)c1cccc(-c2ccc(NC(=O)c3cncnc3)nc2)c1 [Compound 17, N-{5-[3-(methylcarbamoyl)phenyl]pyridin-2-yl}pyrimidine-5-carboxamide]",56.3%,75.5%,62.8%,81.7%,84.5%,91.7%
"Cc1ncc(C(=O)Nc2ccc(-c3cc(NC4CC4)cc(N4CCN(C)CC4)c3)cn2)cn1 [Compound 51, N-{5-[3-cycopropylamino-5-(4-methylpiperazin-1-yl)phenyl]pyridin-2-yl}-2-methylpyrimidine-5-carboxamide]",22.9%,49.5%,17.3%,65.7%,6.8%,76%
"Cc1ncc(C(=O)Nc2ccc(-c3cc(NC4CC4)cc(N4CCN(C)CC4)c3)c(C)n2)cn1 [Compound 52, N-{5-[3-cyclopropylamino-5-(4-methylpiperazin-1-yl)phenyl]-6-methylpyridin-2-yl}-2-methylpyrimidine-5-carboxamide]",-1.6%,22.2%,35%,52.5%,8%,69.5%
"Cc1ncc(C(=O)Nc2ccc(-c3cc(N4CCN(C)CC4)cc(S(=O)(=O)C4CC4)c3)cn2)cn1 [Compound 49, N-{5-[3-cyclopropylsulfonyl-5-(4-methylpiperazin-1-yl)phenyl]pyridin-2-yl}-2-methylpyrimidine-5-carboxamide]",28.1%,48.3%,19.4%,39.7%,16.9%,59.5%
"O=C(Nc1ccc(-c2cccs2)cn1)c1cccnc1 [Compound 11, N-[5-(thiophen-2-yl)pyridin-2-yl]pyridine-3-carboxamide]",58.6%,88.9%,70%,83.8%,85%,97.8%
"Cc1ncc(C(=O)Nc2ccc(-c3cc(N4CCN(C)CC4)cc(S(=O)(=O)C4CC4)c3)c(C)n2)cn1 [Compound 50, N-{5-[3-cyclopropylsulfonyl-5-(4-methylpiperazin-1-yl)phenyl]-6-methylpyridin-2-yl}-2-methylpyrimidine-5-carboxamide]",10%,40.7%,39.2%,54.7%,7.3%,62.6%
"Cc1ncc(C(=O)Nc2ccc(-c3ccccc3)cn2)cn1 [Compound 8, 2-methyl-N-(5-phenylpyridin-2-yl)pyrimidine-5-carboxamide]",68.7%,74.5%,71.6%,71.7%,89.8%,90.8%
"O=C(Nc1ccc(-c2ccncc2)cn1)c1cncnc1 [Compound 13, N-(3,4′-bipyridin-6-yl)pyrimidine-5-carboxamide]",4.5%,0.2%,19.2%,17.5%,9.3%,47.2%
"Nc1ncc(C(=O)Nc2ccc(-c3ccccc3)cn2)cn1 [Compound 9, 2-amino-N-(5-phenylpyridin-2-yl)pyrimidine-5-carboxamide]",70.9%,75.5%,70.7%,76.7%,92.5%,90.6%
"O=C(Nc1ccc(-c2ccccc2)cn1)c1cccnc1 [Compound 10, N-(5-phenylpyridin-2-yl)pyridine-3-carboxamide]",61.4%,86.4%,71.8%,87.3%,92.7%,95.2%
